In article PMC12597941 (Frontiers in Pharmacology, 2025):

Columns and labels:
[1] = Untargeted LC-HRMS metabolite profiling after oral PAC administration
Procedure: Animals to be sacrificed at 6 h (only test item-treated animals) were placed in metabolic cages (650-0100, Nalgene) for the collection of urine. Urine was stabilized with a final concentration of 4 mM NaN3 and stored at 4 °C. At 1 h and 6 h after the administration of the vehicle (1 h only) or test items (1 and 6 h), animals from the respective treatment groups were euthanized by CO2 inhalation. Blood was obtained by cardiac puncture and drawn in lithium-heparin-containing vials for the preparation of plasma by centrifugation (4,000 rpm, 4 °C, 10 min). Plasma was stored at −80 °C until bioanalytical analysis. Samples of the mixed intestinal content were obtained by scraping the small intestine, cecum, and large intestine into a 5-mL tube. Tubes were covered with gaseous N2 and stored at −80 °C.
The supernatant was evaporated to dryness and resuspended in 150 µL 1% FA in H2O/ACN (9/1, v/v) for analysis.
Rat intestinal content was first freeze-dried and finely crushed. […] Ethyl acetate extracts were evaporated to dryness and then resuspended in 300 µL 1% FA in H2O/ACN (9/1, v/v) for untargeted LC-HRMS analysis. Internal standards (listed in Supplementary Table S1) were spiked to both the sample types to ensure the performance of the measurements and monitor matrix effect.
Untargeted metabolite profiling was performed using a Vanquish UHPLC coupled with an Orbitrap Fusion Tribrid mass spectrometer (Thermo Fisher Scientific, Waltham, MA, United States of America) fitted with a HESI source. Chromatographic separation was performed on Waters Acquity HSS T3 1.8 µm Column (2.1 mm × 150 mm) (Waters Technologies, United States of America). The injection volume was 5 µL. The flow rate was set at 0.45 mL/min, and the column temperature was 40 °C. […] The gradient was as follows: 0% B from 0 to 2 min, 0%–10% B from 2 to 10 min, 10%–80% B from 10 to 25 min, 80%–100% B from 25 to 26 min, 100% B from 26 to 31 min, 100%–0% B from 31 to 32 min, and 3 min equilibration at 0% B.
Compound discoverer 3.1 (CD, Thermo Fisher Scientific, Waltham, MA, United States of America) was used for untargeted and novel feature detection. Raw files were processed with CD in the following steps: first, spectra were selected from raw data followed by retention time (RT) alignment with RT tolerance of 2 min and 5 ppm mass precision. Then, unknown compounds were detected and grouped with RT tolerance of 0.5 min and 5 ppm mass deviation. Missing values were filled. The composition was predicted based on the exact mass. The compounds were annotated with different types of databases. mzCloud was used to annotate compounds on the MS/MS level with a mass tolerance of 10 ppm. ChemSpider was used to annotate features based on the exact mass with a mass tolerance of 20 ppm.
Relevant features were identified by performing differential analysis between the vehicle and PAC treatment groups in Compound Discoverer software. […] Compound annotations of these features were checked for plausibility, and, if necessary, structural elucidation was manually continued.

[2] = Plasma levels of terpene lactones, flavonol aglycones and PAC metabolites in T-maze mice; assay type: in vivo
Procedure: Targeted LC-MS/MS was used to quantify known and newly identified PAC metabolites (MRM transitions based on MS2 spectra of the untargeted analysis), as well as main ginkgo terpene lactones and flavonol aglycones in one single run in mouse plasma obtained from the pharmacological experiments (Supplementary Table S1).
The injection volume was 10 µL. […] Data processing was carried out with MassHunter Quantitative Analysis 10.1 software.
Plasma levels of terpene lactones (ginkgolide A, ginkgolide B, and bilobalide) and main ginkgo flavonol aglycones (quercetin, kaempferol, and isorhamnetin) were quantified in samples from animals used in the T-maze model. The detailed protocols for the analysis methods are included in the Supplementary Material.
Quantification of Acetylcholine in plasma […]
as described in the manufacturer’s instructions. […]
for 30 min at room temperature. […]
subtracted and of ACh concentration was calculated.
Flavonol aglycone quantification in plasma […]
methanol. […]
Data processing was conducted with mass hunter quantitative analysis 10.1.
Terpene lactone quantification in plasma […]
An Agilent 7890B GC (Agilent, Santa Clara, CA) coupled to an Agilent 7000D triple-quadrupole MS (Agilent, Santa Clara, CA) was used to analyze all samples. […] Target analytes were analyzed in negative ion chemical ionization with multiple reaction monitoring (MRM) mode using […]

[3] = test system: scopolamine-induced working memory impairment; assay: T-maze spontaneous alternation, scopolamine-induced memory impairment; assay type: in vivo; conditions: mice, p.o. 1 h before T-maze; donepezil 0.3 mg/kg
Procedure: To impair short-term memory, mice were injected intraperitoneally (i.p.) with 1 mg/kg scopolamine (S1875, Sigma-Aldrich) or 0.9% NaCl (PZN01399062, Fresenius) 20 min prior to the experimental session. […] Switching from the right to the left arm of the T-maze or vice versa was calculated as correct alternations (%). The method is based on the study by [Deacon (2006)]. At 15 min after the start of the T-maze observation and once the 20 arm entry trials were finalized, animals were euthanized with CO2, and blood was collected by cardiac puncture for EDTA-plasma (Figure 1).
Data were analyzed using GraphPad Prism 10.1.2 (GraphPad Software, La Jolla, CA). Experimental groups were compared using one-way analysis of variance (ANOVA) or two-way ANOVA, followed by Dunnett’s post-test. Vehicle and each active treatment group were compared to the vehicle–scopolamine group (that received vehicle p.o., followed by i.p. injection of scopolamine). For calculation of dose–response curves, reversal of the scopolamine-induced amnesia was calculated. […] For ROS data, baseline ROS levels without treatment were set as 0% inhibition. […] Emax, and relative ID50 values for the T-maze in vivo studies were taken directly from the calculated dose–response curve data provided by Graph Pad Prism. […]

[4] = after oral PACs, c = detected in mice plasma

Row | Compound | Compartment in which the metabolite was detected [1, 4] | Time points at which the metabolite was detected ([1]; after oral PACs) | further results
1 | O=C(O)c1cc(O)c(O)c(O)c1 [M01, Gallic acid] | – | – | Time points at which the metabolite was detected ([1]; rat, in vivo, po): 6 h; plasma level versus PAC dose ([2]; plasma of PAC-treated mice, approximately 1 h 15 min after administration): dose-dependent increase
2 | Oc1cc(O)c2c(c1)O[C@H](c1cc(O)c(O)c(O)c1)[C@@H](O)C2 [M04, Gallocatechin] | Intestine | – | –
3 | COc1cc(C=O)ccc1O[C@@H]1O[C@H](C(=O)O)[C@@H](O)[C@H](O)[C@H]1O [M07, Vanillin glucuronide] | Urine | – | –
4 | O=C1CCC(Cc2cc(O)c(O)c(O)c2)O1 (stereo not shown) [M08, 5-(3',4',5'-trihydroxyphenyl)-gamma-Valerolactone] | Intestine | 6 h | –
5 | Oc1cc(O)c(CC(O)Cc2cc(O)c(O)c(O)c2)c(O)c1 (stereo not shown) [M09, 1-(3‘,4‘,5‘-trihydroxyphenyl)-3-(2‘‘,4‘‘,6‘‘-trihydroxyphenyl)propan-2-ol] | Intestine | 6 h | –
6 | Oc1cc(O)c2c(c1)O[C@H](c1cc(O)c(O)c(O)c1)[C@H](O)C2 [M10, Epigallocatechin] | Intestine | – | –
7 | Oc1cc(O)c2c(c1)OC(c1ccc(O)c(O)c1)C(O)C2 (stereo not shown) [M11, Catechin] | Intestine | 6 h | –
8 | O=C1CCC(Cc2cc(O)cc(O)c2)O1 (stereo not shown) [M12, 5-(3‘,5‘-Dihydroxyphenyl)-γ-Valerolactone] | Intestine | 6 h | –
9 | O=C1CCC(Cc2ccc(O)c(O)c2)O1 (stereo not shown) [M13, 5-(3‘,4‘-Dihydroxyphenyl)-γ-Valerolactone] | Intestine | 6 h | –
10 | Oc1cc(O)c(CC(O)Cc2ccc(O)c(O)c2)c(O)c1 (stereo not shown) [M14, 1-(3′,4′-dihydroxyphenyl)-3-(2″,4″,6″-trihydroxyphenyl)propan-2-ol] | Intestine | 6 h | –
11 | O=C(O[C@@H]1Cc2c(O)cc(O)cc2O[C@@H]1c1cc(O)c(O)c(O)c1)c1cc(O)c(O)c(O)c1 [M15, Epigallocatechin gallate] | Intestine | 1 h | –
12 | COc1cc(C(O)C(O)/C(=C\C(=O)O)c2ccccc2)cc(O)c1O (stereo not shown) [M17, (2Z)-5-(3,4-dihydroxy-5-methoxyphenyl)-4,5-dihydroxy-3-phenylpent-2-enoic acid] | Intestine | 6 h | –
13 | O=C(O)[C@H]1O[C@@H](Oc2c(-c3cc(O)c(O)c(O)c3)oc3cc(O)cc(O)c3c2=O)[C@H](O)[C@@H](O)[C@@H]1O [M18, Myricetin 3-O-glucuronide] | Intestine | 1 h | –
14 | COc1cc(-c2oc3cc(O)cc(O)c3c(=O)c2O[C@@H]2O[C@H](C(=O)O)[C@@H](O)[C@H](O)[C@H]2O)cc(O)c1O [M19, 5'-O-methyl Myricetin 3-O-glucuronide] | Intestine | 1 h | –
15 | O=c1c(O)c(-c2cc(O)c(O)c(O)c2)oc2cc(O)cc(O)c12 [M20, Myricetin] | – | – | Compartment in which the metabolite was detected ([1]; rat, in vivo, po): Intestine; Time points at which the metabolite was detected ([1]; rat, in vivo, po): 1h, 6h
16 | COc1cc(O)cc2oc(-c3cc(O)c(O)c(O)c3)c(O)c(=O)c12 [M21, 5-O-Methylmyricetin] | Urine | 6 h | –
17 | COc1cc2c(cc1OC)C(=O)C(CC1CCN(Cc3ccccc3)CC1)C2 (stereo not shown) [donepezil] | – | – | effect on scopolamine-induced impairment of correct alternations [3]: largely prevented
18 | Gallic acid glucuronide [M03] | Urine | – | –
19 | Gallic acid-O-sulphate [M02] | Plasmac | – | time of peak plasma level ([2]; mouse plasma, after PAC fraction 100 mg/kg p.o., peak area): 1 h
20 | Methylgallic acid-O-sulphate [M06] | Urine | – | –
